# Test results taken from patent publication US11246854B2, “Ozonides for treating or preventing virus infections” (THE JOHNS HOPKINS UNIVERSITY, priority 2017, dated 2022).
# “Also recorded” adds a separate entry of the source.
# Legend:
# [1] = test system: HCMV in high density and low density HFFs; settings: Roy S., 2015; cited from earlier work
# pp28-luciferase HCMV = experiment: Add-on and removal experiments; assay type: cell-based, human cytomegalovirus; settings: luciferase at 72 hpi
# Procedure: HFFs were infected with the pp28-luciferase HCMV as described above. At 0, 6, 12, 24, 36 and 48 hpi, the media were replaced by the media containing OZ418 or GCV. For time-of-removal studies, media containing the compounds were removed at 0, 6, 12, 24, 36 and 48 hpi, cells were then washed three times with PBS, and drug-free medium was added. The cells were incubated at 37° C., and luciferase assays were carried out at 72 hpi.
# [2] = test system: pp28-luciferase Towne CMV strain; experiment: Drug combination with GCV (Bliss model); assay type: cell-based, human cytomegalovirus; settings: FIGS. 4D and E
# Procedure: Drug combinations were performed as previously reported (33). Briefly, 2×10^6 HFFs were seeded in a 96-well plate and infected with the pp28-luciferase Towne CMV strain at MOI=1. First, a dose response curve was generated for each drug individually to determine its EC50. […] Luciferase activity of the combination and each drug individually was quantified at 72 hpi. The Bliss model was used to calculate the effect of each drug combination on pp28-luciferase activity. In this model, drug combination represents the product of two probabilistically independent events as described in the following equation (23):
# [formula] Where D is the drug concentration, m is the slope, and EC50 is the effective concentration resulting in 50% virus inhibition. The combined effect of two inhibitors (FU, fractional unaffected) is computed as the product of individual effects of the two inhibitors, FU1 and FU2. If the ratio of observed fold inhibition divided by the expected fold inhibition is greater than 1, the compounds are synergistic. If the ratio is less than 1, the combination is considered antagonistic, and if it equals to 1 the combination is additive.
# non-infected HFFs [3] = settings: literature report; cited from earlier work
# [4] = test system: CDK 1, 2, 4, pRb and E2F1 expression; experiment: Immunoblot of CDKs, pRb and E2F1, HCMV-infected HFFs; assay type: cell-based, human
# Procedure: (§1) Cell lysates were quantified for total protein content using Pierce bicinchoninic acid (BCA) protein assay kit (Thermo-Fisher Scientific, Waltham, Mass.). Equivalent amounts of protein were mixed with an equal volume of sample buffer (125 mM Tris-HCl [pH 6.8], 4% SDS 20% glycerol, 5% β-mercaptoethanol) and boiled at 100° C. for 10 min. Denatured proteins were resolved in Tris-glycine polyacrylamide gels (10% to 12%) and transferred to polyvinylidene difluoride membranes (Bio-Rad Laboratories, Hercules, Calif.) by electroblotting. Membranes were incubated in blocking solution (5% nonfat dry milk/BSA and 0.1% Tween 20 in PBS [PBST]) for 1 h, washed three times with PBST, and incubated primary antibodies diluted in 5% milk or BSA (for pRb) at 4° C. overnight. The membranes were washed with PBST, followed by incubation with horseradish peroxidase (HRP)-conjugated secondary antibodies in 5% milk/BSA for 1 h at room temperature. After three washing steps with PBST, protein bands were visualized by chemiluminescence using SuperSignal West Pico reagent (Pierce Chemical, Rockford, Ill.). […]
# [5] = test system: pp28 luciferase-recombinant Towne HCMV; settings: in the presence of viral DNA polymerase inhibitors; previously described; cited from earlier work
# [6] = test system: pp28 luciferase-recombinant Towne HCMV; experiment: pp28-luciferase Towne HCMV replication assay in HFFs; assay type: cell-based, human cytomegalovirus; settings: for Selectivity index (SI): CC50/EC50; for EC50: Human betaherpesvirus 5
# Procedure: (§2) Six ozonizes have been tested for inhibition of HCMV replication and toxicity in human foreskin fibroblasts (Table 1, FIG. 1). The pp28 luciferase-recombinant Towne was used to measure HCMV replication, and an MTT assay—for cell viability. […] (FIG. 1).
# (§3) The pp28-luciferase Towne CMV strain was constructed as previously described (31). The recombinant virus expresses luciferase under the control of UL99 (pp28) late promoter 48-72 h post infection (hpi). […] Luciferase activity highly correlates with plaque reduction assay. The Towne CMV (ATCC VR-977) and TB40 strains (ATCC VR-1578) were used for plaque reduction, DNA replication, and cell cycle assays.
# HFFs passage 12-16 (ATCC, CRL-2088) were grown in Dulbecco's Modified Eagle Medium (DMEM) containing 10% fetal bovine serum (FBS) (Gibco, Carlsbad, Calif.) in a 5% CO2 incubator at 37° C. and used for infection with pp28-luciferase Towne CMV. HCT116 (Human Colorectal Carcinoma) (ATCC, CCL-247) cells were maintained in DMEM containing 10% fetal bovine serum.
# (§4) To determine the effect of cell density/cycling on the anti-HCMV activity of ozonides, HFFs were plated at 0.5×10^6, 1×10^6, 2×10^6 or 3×10^6 cells/96 well-plate 24 h prior to infection. Infection was carried out at multiplicity of infection of 1 PFU/cell (MOI=1). Following 90 minute adsorption, media containing virus was removed and replaced by DMEM with 4% FBS (Gibco) containing anti-viral compounds. Infected treated HFFs were collected at 72 hpi and pp28 activity was quantified by a Luciferase Assay Kit (Promega, Madison, Wis.) on GloMaxH-Multi+ Detection System (Promega) according to manufacturer's instructions.
# MTT cell viability assay = assay type: cell-based; settings: human foreskin fibroblasts
# Procedure: Six ozonizes have been tested for inhibition of HCMV replication and toxicity in human foreskin fibroblasts (Table 1, FIG. 1). The pp28 luciferase-recombinant Towne was used to measure HCMV replication, and an MTT assay—for cell viability.
# Cells were seeded in 96-well plates, treated with various concentrations of ozonides and incubated at 37° C. for 3 days. Cell viability was determined by an MTT-based colorimetric assay (Sigma-Aldrich), and performed at the same time points as the antiviral assay.
# non-infected HFFs [7] = experiment: Cell cycle progression by flow cytometry, non-infected HFFs; assay type: cell-based, human; settings: non-infected cells, 30 μM, 24 h and 72 h
# Procedure: (§5) To identify the cell cycle stage affected by OZ418, non-infected HFFs were serum starved for 72 h and then released in DMEM with 0% FBS (control for G0 arrest), 10% FBS (control for cell cycle progression), or 10% FBS plus OZ418 (30 μM), AS (30 μM), or GCV (30 μM) for 24 h and 72 h, respectively. To determine the effects of OZ418 on cell cycle progression in infected HFFs, 1.0×10^6 cells were serum starved for 72 h, and then infected with HCMV Towne strain (MOI=1) followed by treatment with OZ418 (30 μM), AS (30 μM), or GCV (5 μM) for 24 h and 72 h, respectively. The cells were collected by treatment with trypsin and then washed with PBS. The collected cells were fixed in 5 ml of cold 70% ethanol overnight at 4° C. and resuspended in […] of staining buffer (50 μg/ml propidium iodide [Sigma-Aldrich] and 0.2 mg/ml RNase A in PBS) for 45 min at 37° C. in 5% CO2. The samples were analyzed on an LSR II flow cytometer (BD Biosciences, San Jose, Calif.), and at least 10,000 cells were counted for each sample. Data analysis was performed using FlowJo software (Tree Star, USA). The percentage of cells in G1/S/G2-M is shown in each condition.
# GCV-resistant CMV strain = experiment: Inhibition of GCV-resistant HCMV; assay type: cell-based, human cytomegalovirus; settings: FIG. 3
# From the text: FIG. 3A-3D illustrates activity of OZ418 against a GCV-resistant CMV strain. A. Dose response. B. Luciferase. C. HCMV proteins IE1/2, UL44, and pp65 detection. D. Plaque reduction assay.
# A GCV-resistant strain was inhibited by OZ418 (FIG. 3).
# HCMV-infected HFFs = experiment: Cell cycle progression by flow cytometry, HCMV-infected HFFs; assay type: cell-based, human; settings: HCMV-infected cells, 30 μM, 24 h and 72 h
# Procedure: as §5
# MCMV = experiment: Inhibition of mouse CMV replication in BALB/c mice; assay type: in vivo
# Procedure: For infection experiments BALB/c mice, 4-6 week old, were purchased from Harlan Laboratories (Indianapolis, Ind.). The Animal Care and Use Committee of Johns Hopkins University approved the experimental procedures. After 2-3 days of adaptation to the housing environment, mice were randomly divided into several groups as follows: control, infected, infected+OZ418 1 mg/kg, 3 mg/kg or 10 mg/kg orally once daily, infected+AS 10 mg/kg orally twice daily, infected+GCV 10 mg/kg intraperitoneally twice daily. Mice were infected intraperitoneally with 10^6 PFU/mice (0.1 mL in […] saline) and all treatments were started at 24 hpi. Control mice received 0.1 ml of saline intraperitoneally. Control and infected mice received equivalent volumes of saline. Mice were sacrificed at day 14 after infection. Salivary glands, liver and spleen were harvested and stored at −80° C. Organs were homogenized in DMEM with 4% FBS at a final concentration of 100 mg/mL. Two million MEFs were seeded into 24-well plates. From each sample, 5% of the salivary gland homogenate or 10% of the liver homogenate was used for infection of MEFs in triplicates. Plaques were counted after three days.
# [8] = test system: CDKs, pRB and E2F1 expression; experiment: Immunoblot of CDKs, pRb and E2F1, non-infected HFFs; assay type: cell-based, human
# Procedure: as §1
# HCMV entry = HCMV entry assay; assay type: cell-based; settings: FIG. 4A
# Procedure: To determine the time during HCMV replication that OZ418 was active an entry assay was performed (FIG. 4A).
# [9] = test system: HCMV in high density and low density HFFs; experiment: Effect of cell density on anti-HCMV activity (pp28 luciferase); assay type: cell-based, human cytomegalovirus
# Procedure: as §4
# HCMV TB40 strain = experiment: Plaque reduction assay in HFFs; assay type: cell-based, human cytomegalovirus; settings: Human betaherpesvirus 5, read-out: EC50 in plaque reduction assay
# Procedure: as §2, §3
# A plaque reduction assay was performed in HFFs. One day prior to infection, HFFs were seeded at 3×10^6 cells/24-well plate. The Towne CMV strain was diluted in DMEM to a desired titer which gave approximately 50 plaques/well and added to each well in quadruplicates. Plates were incubated for 90 minutes with shaking every 10 min; thereafter compounds were added and replenished every 3 days. After a 10-day incubation, cells were stained with crystal violet and plaques were counted at 40× magnification.
compound,measurement,setting,value
"C[C@H]1[C@H](OC(=O)CCC(=O)O)O[C@@H]2O[C@@]3(C)CC[C@H]4[C@H](C)CC[C@@H]1[C@@]24OO3 [AS, Artesunate, reference compound]",Cell-density dependence of anti-HCMV activity (reported),[1],cell-density dependent
same,Timing of anti-HCMV activity,pp28-luciferase HCMV,lost anti-HCMV activity when added after 24 h post infection
same,Combination effect with GCV against HCMV,[2],synergistic activity with GCV
same,Cell cycle effect (reported),non-infected HFFs [3],arrest cell cycle in early G1
"Nc1nc(O)c2ncn(COC(CO)CO)c2n1 [GCV, ganciclovir, reference compound]","Expression level of CDKs, pRb and E2F1",[4],did not exhibit any effects on pRb/CDKs expression
same,Luciferase expression from UL99 (pp28) late promoter,[5],almost completely inhibited
"CC(C)(N)CNC(=O)C[C@H]1CC[C@]2(CC1)OO[C@]1(O2)C2CC3CC(C2)CC1C3 [OZ277, arterolane, reference compound]",Selectivity index (SI),[6],1.98 ± 0.09
same,EC50,[6],17.1 ± 1.31 µM
same,CC50 at 3 days,MTT cell viability assay,33.7 ± 1 µM
O=C(O)COc1ccc([C@H]2CC[C@]3(CC2)OO[C@]2(O3)C3CC4CC(C3)CC2C4)cc1 [OZ418],Cell cycle progression,non-infected HFFs [7],did not influence cell cycle progression
same,Inhibition of GCV-resistant strain,GCV-resistant CMV strain,inhibited
same,"Expression level of CDKs, pRb and E2F1",[4],reduced
same,Cell cycle progression,HCMV-infected HFFs,delayed cell cycle progression
same,Timing of anti-HCMV activity,pp28-luciferase HCMV,early-late inhibitor of HCMV
same,Combination effect with GCV against HCMV,[2],synergistic activity with GCV
same,MCMV inhibition compared to AS,"MCMV; OZ418 once daily vs AS orally twice daily, FIG. 5 D-F",more effective in MCMV inhibition
same,MCMV replication in organs,"MCMV; salivary gland, liver and spleen, day 14 after infection, OZ418 1, 3 or 10 mg/kg orally once daily",effectively inhibits mouse CMV replication; also recorded: dose response was observed
same,"Expression of CDKs, pRB and E2F1",[8],unchanged; also recorded: did not decrease the expression of pRb or any of the tested CDKs
same,Inhibition of HCMV entry,HCMV entry,did not inhibit HCMV entry
same,Selectivity index (SI),[6],13.06 ± 0.48
same,EC50,[6],9.8 ± 0.25 µM
same,CC50 at 3 days,MTT cell viability assay,128 ± 8 µM
same,HCMV inhibition in high-density HFFs,"[9]; high-density HFFs, FIG. 8A",effectively inhibited HCMV
same,Cell-density dependence of anti-HCMV activity,[9]; low density and high density human fibroblast cells,cell-density dependent
same,Activity against HCMV in low-density HFFs,"[9]; low-density HFFs, FIG. 8A",significantly reduced
same,EC50,HCMV TB40 strain,8.53 ± 0.09 µM
"c1cc([C@H]2CC[C@]3(CC2)OO[C@]2(O3)C3CC4CC(C3)CC2C4)ccc1OCCN1CCOCC1 [OZ439, artefenomel]",EC50,[6],13.2 ± 1.27 µM
OC1CCN(CCOc2ccc([C@H]3CC[C@]4(CC3)OO[C@]3(O4)C4CC5CC(C4)CC3C5)cc2)CC1 [OZ513b],Selectivity index (SI),[6],3.14 ± 0.20
same,EC50,[6],15.7 ± 0.87 µM
same,CC50 at 3 days,MTT cell viability assay,49.4 ± 3.67 µM
O=C(O)C1CCN(CCOc2ccc([C@H]3CC[C@]4(CC3)OO[C@]3(O4)C4CC5CC(C4)CC3C5)cc2)CC1 [OZ721],Selectivity index (SI),[6],7.89 ± 0.35
same,EC50,[6],5.75 ± 0.74 µM
same,CC50 at 3 days,MTT cell viability assay,45.5 ± 6.82 µM
O=C(O)P(=O)(O)O [foscarnet],Luciferase expression from UL99 (pp28) late promoter,[5],almost completely inhibited
